# Experimental data as given in US20210000907A1, “MICRONEEDLE-MEDIATED DELIVERY OF TOLEROGENIC IMMUNOTHERAPEUTICS” (University of Maryland, College Park, priority 2017, published 2021).
# Experiments:
# Format in all cases: in vivo
# [1] = tested on: Experimental Autoimmune Encephalomyelitis (EAE); experiment: Experimental Autoimmune Encephalomyelitis (EAE), progressive mouse model of MOG-driven inflammation
# Protocol: (§1) We confirmed the activity and dose-dependence of traditional GA regimens using daily GA injections (i.p.) at 0.2 or 2.0 mg/day beginning at disease onset in EAE (arrows; N=10/group). As discussed above, EAE is a progressive mouse model of MOG-driven inflammation that results in severe paralysis over several weeks; higher clinical scores indicate more severe disease (FIG. 3, panel A). Next we formulated GA-MNs (with sucrose stabilizer) such that a single MN patch contained 0.2 mg—confirmed by dissolution and fluorimetry—to match the ineffective injected GA dose in FIG. 3 panel A. The actual amount of GA delivered from MNs is likely less than the total GA loading due to accumulation on the backing. Mice were then treated at the ear on days 5, 10, 15, and 20 with GA-MNs or control MNs lacking GA (“Sucrose MN”). […] To analyze this approach in another inflammation model driven by a different myelin peptide—PLP, SJL/J mice were induced with relapsing-remitting EAE (RR-EAE) then treated on days 6, 9, and 12 (N=15/group) using equivalent doses 0.2 mg/treatment (tx) group of GA by MN or soluble i.p. injection.
# [2] = tested on: relapsing-remitting EAE (RR-EAE); experiment: Relapsing-remitting EAE (RR-EAE) driven by PLP in SJL/J mice; settings: 0.2 mg/treatment on days 6, 9, 12, by MN or soluble i.p. injection; for RR-EAE mean score: measured at the last treatment day
# Protocol: as §1
# [3] = tested on: lymphocytes, TREG, CD45+CD4+ T cells; experiment: Flow cytometry of cervical LNs, spleen and spinal cord in RR-EAE mice; settings: Day 10 and Day 12, relative to untreated mice with RR-EAE
# Protocol: To analyze this, we analyzed whether GA-MN could increase TREG, and, that because of the decreased clinical scores in FIG. 3, these effects might be evident in cervical LNs. Using analogous regimens to FIG. 3 panel D (RR-EAE), mice were euthanized at Day 10 and Day 12, then cervical LNs and spleen were assessed by flow cytometry. Relative to untreated mice with RR-EAE, GA-MN increased both the number of lymphocytes (FIG. 4 panel A) and the number of TREG (FIG. 4 panel B); these effects were not observed in mice treated with soluble GA. […] At day 12, we assessed the number of lymphocytes and activated CD4^+ T cells, as indicated by staining for CD45^+/CD4^+ cells. Though the group sizes (N=5) were insufficient for statistical significance, we observed a trend that GA-MN decreased the number of lymphocytes the spinal cord (FIG. 5 panel A), as well as the number of infiltrating CD45^+CD4^+ cells (FIG. 5 panels B and C). The data in these Examples indicate GA-MNs deliver GA through the skin of mice at doses that provide efficacy in EAE and RR-EAE.
substance,measurement,setting,value
glatiramer acetate [GA],"EAE clinical score, effect of injected GA",[1]; daily GA injections i.p. 0.2 mg/day beginning at disease onset,ineffective
same,"EAE clinical score, dose dependence of daily GA dosing",[1]; daily GA injections i.p. at 0.2 or 2.0 mg/day beginning at disease onset,dose-dependent effects
same,RR-EAE disease progression,[2]; listed as injectable GA,does not
same,RR-EAE disease progression,[2]; listed as soluble GA,no effect
same,RR-EAE mean score,[2]; listed as injectable GA,does not
same,RR-EAE mean score,[2]; listed as soluble GA,no effect
same,Number of TREG in cervical LNs,[3],not observed
same,Number of lymphocytes in cervical LNs,[3],not observed
